Entries after “also recorded” stand apart in the source; their conditions may differ. Where two headings read alike, the source gives them in different places.
Experiments:
[1] = biological target: T1, cGAS (Homo sapiens, UniProt Q8N884); assay: cGAS activity assay: cGAMP production quantified by TLC (IC50 Enzyme Assay); assay type: biochemical; conditions: for inhibitory activity on cGAMP production, in words: TLC, FIG. 2C
T1 construct: made in house; host or cells: E. coli Rosetta BL21 pLysS
Experimental: HCQ belongs to a family of antimalarial drugs that share the structure of aminoquinolines. To rapidly screen these antimalarial drugs for their ability to interfere with cGAS activation by ds-DNA, we performed dose titration experiments with drug and quantified cGAMP production using thin layer chromatography (TLC) (FIG. 2A). Reactions were performed in triplicate and normalized to no-inhibitor controls and fit by non-linear regression using Prism […]™ to determine the IC50 of each compound. Each compound yielded dose-response curves similar to HCQ but with different inhibitory activities (FIG. 2B). […] Strikingly, the computational predicted binding affinities of these anti-malaria drugs inversely correlated with the IC50 of anti-malarial drugs, validating the prediction of our computational analysis (FIG. 2D).
Initial characterization of enzyme activity was monitored in the presence of 250 μM ATP, 250 μM GTP, 0-500 μg/mL herring testes DNA, 1.4 μM cGAS, 3.3 nM ^32P-γ-ATP in a buffer composed of 40 mM Tris, 250 mM NaCl, 10 mM MgCl2, pH 7.5. Reactions were incubated for 1 hr at room temperature and subsequently spotted on PEI-cellulose TLC plates and developed using a solvent composition 1:1.5 [v/v] saturated NH4SO4 and 1.5 M KH2PO4 [pH 3.6]. For inhibition assays, compounds were characterized in the presence of the above reaction contents at fixed 100 μg/mL htDNA. TLC plates were exposed to a phosphor-storage screen and imaged using a TYPHOON™ imaging system. (See FIGS. 7-16).
cGAS activity was monitored in the presence of 250 μM ATP, 250 μM GTP, 0-500 μg/ml herring testes DNA. 1.4 μM cGAS. and 3.3 nM [^32P]-ATP in Tris buffer (pH 7.5). After incubation for 1 h at room temperature, samples were spotted on PEI-cellulose Thin Layer Chromatograph (TLC) plates, and developed using a solvent composed of 1:1.5 [v/v] saturated NH4SO4 and 1.5 M KH2PO4 [pH 3.6]. For inhibition assays, compounds were characterized in the presence of the above reaction contents at fixed 100 μg/ml HT DNA. TLC plates were exposed to a phosphor-storage screen and imaged using a TYPHOOON™ imaging system. (FIG. 7).
Thin Layer Chromatograph (TLC) assay was used for the quantification of cGAS inhibition by compounds X5/X6/X7. Reactions were normalized to no-inhibitor controls and fit by non-linear regression using Prizm […]™ to determine the IC50 of each compound. (FIG. 7).

[2] = test system: IFNb production by THP1 cells; assay: IFNb expression by QPCR in THP1 cells transfected with herring testis DNA; assay type: cell-based; conditions: for IC50: Homo sapiens, read-out: IC50 of inhibition of IFNb production by THP1 cells; for inhibition of IFNb production, effectiveness in words: THP1 cells transfected with DNA, compared with Quinacrine, AMCA, HCQ, Chloroquine
From the text: Systemic Lupus Erythematosus (SLE) is strongly associated with increased expression of type I interferon (IFN-I) (Elkon, 2012). Both genetic as well as experimental studies indicate that IFN-I plays a central role in this disease (Lovgren, 2006) (Niewold, 2007). To determine the physiological relevance of our computational analysis and in vitro observance, we examined whether antimalarial drugs could inhibit IFNb production within the cell. […] Using this approach, we transfected THP1 cells with DNA in the presence or absence of antimalarial compounds and quantified IFNb expression by QPCR.
THP1 cells (0.2×10^6) were transfected with 0.5 ug herring testis DNA using Lipofectamine 2000 (Invitrogen) according to the manufacture's instruction. Before transfection, THP1 cells were incubated with different concentration of Hydroxychloroquine or other antimalarial drugs (100, 50, 25, 12.5 μM) for 5 minutes. Cells were stimulated for 16 hours and then harvested for RNA extraction.
Total RNA was isolated from THP1 cells using the RNeasy mini kit (Qiagen, Valencia, Calif.). cDNA was synthesized using 100 ng RNA with the high-capacity cDNA RT-KIT™ using random primers (Applied Biosystems, Foster City, Calif.). Reactions in duplicate were run on an ABI STEPONE PLUS™ using the primers from Qiagen (primer catalog number): a two-stage cycle of 95° C. for 15 s and 60° C. for 1 min was repeated for 40 cycles followed by a dissociation stage. Threshold cycle values were set as a constant threshold at 0.2, and fold changes in gene expression were then calculated using the 2^−ΔΔ^CT method.

[3] = biological target: T2, dsDNA/cGAS complex (Homo sapiens, UniProt Q8N884); assay: Electrophoretic mobility shift assay (EMSA) of dsDNA (ISD) binding to cGAS; conditions: 0.2 μM ISD, 1.5 μM cGAS, HCQ 0.075~5 mM
T2 construct: made in house; host or cells: E. coli Rosetta BL21 pLysS
From the text: To determine whether these anti-malarial drugs could inhibit DNA binding to cGAS in vitro, we performed DNA binding studies by the electrophoretic mobility shift assay (EMSA). As previously shown, addition of increasing concentrations of cGAS to a constant concentration of ds DNA (ISD), results in the protein retarding migration of ISD on the gel (‘gel shift’) and less free DNA (FIG. 1, left panel). To test whether HCQ as a model antimalarial could attenuate the gel shift, we used constant concentrations of both ISD and cGAS (FIG. 1, right panel) in the presence of increasing concentrations of HCQ. As shown, increasing the concentration of HCQ reduced the gel shift caused by the formation of dsDNA/cGAS complexes and led to increasing free DNA at the bottom of the gel. […] Inhibition of formation of dsDNA/cGAS higher order complexes by antimalarial drugs are especially interesting and important since cGAS is activated by dsDNA induced oligomerization and dsDNA/cGAS complex formation is required for cGAS activation.
Electrophoretic mobility shift assay (EMSAs) were performed to measure the DNA-binding ability with or without HCQ in vitro. […] The mixtures were resolved on 1% agarose gel using 1×TBE electrophoresis buffer of at constant voltage of 100 V. The gel was analyzed by using a fluorescence-based EMSA kit (Molecular Probes) according to the manufacturer's protocol. […]

[4] = biological target: STING (Homo sapiens, UniProt Q86WV6); assay: Binding of 32P-c-di-AMP by STING in the presence of HCQ; conditions: 32P-c-di-AMP (2 nM), STING (170 μM), different HCQ concentrations
[5] = test system: THP1 cells; assay: PolyIC Lipofectamine transfection of THP1 cells, IL-1b by ELISA; assay type: cell-based; conditions: PolyIC transfected THP1 cells, different concentration of HCQ
From the text: PolyIC was transfected by Lipofectamine to THP1 cells with different concentration of HCQ.

[6] = test system: 3 cell lines; assay: Toxicity, average of 3 cell lines @ 50% cell death; assay type: cell-based
[7] = THP-1, THP1 cells transfected with herring testis DNA, 16 hours, QPCR
[8] = cGAS, fixed 100 μg/mL herring testes DNA, TLC of cGAMP, read-out: IC50 Enzyme Assay

T1 sequence (Q8N884 whole entry, species assumed): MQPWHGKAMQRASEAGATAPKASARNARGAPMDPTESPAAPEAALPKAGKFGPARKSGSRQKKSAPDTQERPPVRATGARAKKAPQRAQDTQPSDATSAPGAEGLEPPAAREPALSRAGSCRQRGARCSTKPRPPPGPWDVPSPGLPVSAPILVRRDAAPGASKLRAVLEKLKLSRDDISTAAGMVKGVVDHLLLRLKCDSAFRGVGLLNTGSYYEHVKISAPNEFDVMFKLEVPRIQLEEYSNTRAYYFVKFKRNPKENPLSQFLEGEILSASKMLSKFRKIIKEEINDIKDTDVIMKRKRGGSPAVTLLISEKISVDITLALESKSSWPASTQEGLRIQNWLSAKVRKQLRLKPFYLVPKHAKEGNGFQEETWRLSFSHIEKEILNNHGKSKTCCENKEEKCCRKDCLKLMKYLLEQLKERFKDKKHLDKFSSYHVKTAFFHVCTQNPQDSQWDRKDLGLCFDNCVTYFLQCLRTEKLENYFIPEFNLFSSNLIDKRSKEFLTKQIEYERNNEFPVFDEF
T2 sequence (Q8N884 whole entry, species assumed, one chain of several): as the sequence (Q8N884 whole entry, species assumed) above
STING, sequence (Q86WV6 whole entry H232R, species assumed): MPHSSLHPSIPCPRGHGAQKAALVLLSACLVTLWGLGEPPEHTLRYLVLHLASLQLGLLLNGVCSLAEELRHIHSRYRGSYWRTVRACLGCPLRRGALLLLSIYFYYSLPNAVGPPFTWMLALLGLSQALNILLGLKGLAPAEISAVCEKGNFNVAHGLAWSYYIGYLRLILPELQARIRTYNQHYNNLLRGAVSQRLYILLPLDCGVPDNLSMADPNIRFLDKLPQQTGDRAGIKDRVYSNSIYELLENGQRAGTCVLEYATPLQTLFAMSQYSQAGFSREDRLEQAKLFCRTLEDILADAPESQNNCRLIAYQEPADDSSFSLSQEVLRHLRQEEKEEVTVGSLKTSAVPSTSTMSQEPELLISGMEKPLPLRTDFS

**Q.** Which results are given for `CCN(CCO)CCCC(C)Nc1ccnc2cc(Cl)ccc12` (stereo not drawn) [HCQ, hydroxychloroquine]?
**A.** inhibitory activity on cGAMP production, in words [1]: intermediate inhibitory activities; IC50 [2, 7]: 3 to 25 µM; effect on dsDNA/cGAS binding (gel shift) [3]: blocked dsDNA/cGAS binding; also recorded: inhibits the DNA binding to cGAS; effect on c-di-AMP binding to STING [4]: not c-di-AMP to STING; effect on Lipofectamine transfection efficiency (IL-1b production) [5]: did not interfere with the Lipofectamine transfection efficiency

**Q.** Which results are given for `CCN(CC)CCCC(C)Nc1c2ccc(Cl)cc2nc2ccc(OC)cc12` (stereo not drawn) [Quinacrine, quinacrine]?
**A.** inhibitory activity on cGAMP production, in words [1]: relatively potent inhibitors; IC50 [2, 7]: 3 to 25 µM

**Q.** For `CCN(CCO)CCCC(C)Nc1ccnc2cc(Cl)ccc12` (stereo not drawn) [compound 1, hydroxychloroquine], which IC50 [1, 8] is on record?
**A.** Its IC50 is 350 µM.

**Q.** Which “inhibitory activity on cGAMP production, in words” value [1] does the source give for `CCN(CC)CCCC(C)Nc1ccnc2cc(Cl)ccc12` (stereo not drawn) [compound 2, Chloroquine] here?
**A.** The value was “intermediate inhibitory activities”.

**Q.** What about the IC50 [1, 8] of the same compound?
**A.** Its IC50 is 850 µM.

**Q.** And the IC50 ([2]; THP-1, 16 h)?
**A.** Its IC50 is 3 to 25 µM.

**Q.** What does the source list for `COc1cc(NC(C)CCCN)c2ncccc2c1` (stereo not drawn) [compound 3, Primaquine]?
**A.** inhibitory activity on cGAMP production, in words [1]: very low inhibitory activity; IC50 [1, 8]: 850 µM; inhibition of IFNb production, effectiveness in words [2]: less effective by about one log order

**Q.** Which IC50 [1, 8] does the source give for `CCN(CC)CCCC(C)Nc1c2ccc(Cl)cc2nc2ccc(OC)cc12` (stereo not drawn) [compound 4, quinacrine] here?
**A.** Its IC50 is 13 µM.

**Q.** What about the Toxicity [6] of the same compound?
**A.** Its Toxicity is 33.0 µM.

**Q.** With `C=C[C@H]1CN2CC[C@H]1C[C@H]2[C@H](O)c1ccnc2ccc(OC)cc12` [compound 5, Quinine] as the compound, how does the “inhibitory activity on cGAMP production, in words” value [1] read?
**A.** The value was “very low inhibitory activity”.

**Q.** What about the IC50 [1, 8] of the same compound?
**A.** The IC50 was 2000 µM.

**Q.** And the “inhibition of IFNb production, effectiveness in words” value [2]?
**A.** The value was “less effective by about one log order”.

**Q.** What does the source list for `COc1ccc2nc3cc(Cl)ccc3c(N)c2c1` [compound 6, 9-amino-6-chloro-2-methoxyacridine]?
**A.** IC50 [1]: 32 µM; inhibitory activity on cGAMP production, in words [1]: relatively potent inhibitors; IC50 ([2]; THP-1, 16 h): 3 to 25 µM

**Q.** For `CCOc1ccc2nc3cc(N)ccc3c(N)c2c1` [compound 7], which IC50 [1, 8] is on record?
**A.** The IC50 was 10 µM.

**Q.** How did the IC50 [1, 8] turn out when `Nc1c2ccccc2nc2ccccc12` [compound 8] was run?
**A.** Its IC50 is 5 µM.

**Q.** For `O=C(O)[C@H](Cc1c[nH]c2ccccc12)Nc1c2ccccc2nc2ccccc12` [compound 9], which IC50 [1, 8] is on record?
**A.** The IC50 was greater than 650 µM.

**Q.** How did the IC50 [1, 8] turn out when `CCOC(=O)c1ccc(Nc2c3ccccc3nc3ccccc23)cc1` [compound 10] was run?
**A.** The IC50 was greater than 650 µM.

**Q.** With `O=[N+]([O-])c1cccc(Nc2c3ccccc3nc3ccccc23)c1` [compound 11] as the compound, how does the IC50 [1, 8] read?
**A.** Its IC50 is greater than 650 µM.

**Q.** Which IC50 [1, 8] does the source give for `COc1cc(NS(C)(=O)=O)ccc1Nc1c2ccccc2nc2ccccc12` [compound 12] here?
**A.** The IC50 was greater than 650 µM.

**Q.** How did the IC50 [1, 8] turn out when `COc1ccc2nc3cc(N)ccc3c(N(C)CCCN(C)Cc3ccccc3)c2c1` [compound 13, 9-(N-benzyl-N-methyl-N′-methyl-1′,3′-propanediamine)-3-amino-7-methoxyacridine] was run?
**A.** The IC50 was 18 µM.

**Q.** And the Toxicity [6]?
**A.** The Toxicity was 33.1 µM.

**Q.** Which results are given for `COc1ccc2nc3cc(N)ccc3c(N(C)CCCN(C)Cc3ccncc3)c2c1` [compound 14]?
**A.** IC50 [1, 8]: 23 µM; Toxicity [6]: 27.4 µM

**Q.** Which IC50 [1, 8] does the source give for `COc1ccc2nc3cc(N)ccc3c(N(C)CCCN(C)Cc3ccco3)c2c1` [compound 15, 9-(N-furfuryl-N-methyl-N′-methyl-1′,3′-propanediamine)-3-amino-7-methoxyacridine] here?
**A.** The IC50 was 35 µM.

**Q.** How did the IC50 [1, 8] turn out when `CN(C)c1ccc2cc3ccc(N(C)C)cc3nc2c1` [compound 20] was run?
**A.** Its IC50 is 8 µM.

**Q.** For `NCCCCNc1c2ccccc2nc2ccccc12` [compound 21], which IC50 [1, 8] is on record?
**A.** Its IC50 is 1 µM.

**Q.** And the Toxicity [6]?
**A.** Its Toxicity is 16.0 µM.

From patent publication US10329258B2, “CGAS in systemic lupus erythematosus (SLE)” (UNIVERSITY OF WASHINGTON, priority 2015, dated 2019)
